# Source: US20110105326A1, “Method for Enhancing the Rainfastness of Glyphosate” (BASF SE, priority 2008, published 2011)
# Experiments:
# Format in all cases: in vivo
# [1] = system: Brachiaria decumbens (BRADE); test: herbicidal action with/without simulated rainfall after treatment, Brachiaria decumbens; details: Example 8, carfentrazone 30 g/ha, glyphosate 1080 g/ha, 0.5% v/v Dash in Carfentrazone and mixture
# Description: (§1) The enhancement of the rainfastness of glyphosate was determined via the herbicidal activity of the mixture comprising glyphosate and the respective rainfastness enhancing herbicidal component B as well as of the single herbicidal components in relation to simulated rainfall at different time intervals.
# (§2) The evaluation of the damage caused by the method and the compositions the according to the present invention and the single herbicidal components was carried out using a scale from 0 to 100%, compared to the untreated control plots. Here, 0 means no damage and 100 means complete destruction of the plants of a respective weed or crop species.
# (§3) The application was performed with a fixed spayer system with air pressurization and with a tank spray volume of two liters. The speed of the spray device over the plants was adjusted for a spray volume of 200 I/ha. The spray device was a spray barr with four nozzles from the type Teejet XR 11002VS with a space of 50 cm between each nozzle.
# (§4) The application was performed at a weed stage of 6 to 8 leaves. After the application of the formulated herbicides the leaves were washed through rain of 20 mm using a fixed rain simulator system at following time interval: 15 min, 30 min, 1, 2, 3, 4 and 6 hours after treatment.
# Bidens pilosa (BIDPI) = test: herbicidal action with/without simulated rainfall after treatment, Bidens pilosa; details: Example 6, carfentrazone 30 g/ha, glyphosate 1080 g/ha, 0.5% v/v Dash in Carfentrazone and mixture
# Description: as §1, §2, §3, §4
# [2] = system: Echinochloa colonum (ECHCO); test: herbicidal action with/without simulated rainfall after treatment, Echinochloa colonum; details: Example 7, carfentrazone 30 g/ha, glyphosate 1080 g/ha, 0.5% v/v Dash in Carfentrazone and mixture
# Description: as §1, §2, §3, §4
# [3] = simulated rainfall 15 min after treatment, 1 DAA
# [4] = simulated rainfall 15 min after treatment, 2 DAA
# [5] = simulated rainfall 15 min after treatment, 3 DAA
# [6] = simulated rainfall 15 min after treatment, 7 DAA
# [7] = simulated rainfall 30 min after treatment, 1 DAA
# [8] = simulated rainfall 30 min after treatment, 2 DAA
# [9] = simulated rainfall 30 min after treatment, 3 DAA
# [10] = simulated rainfall 2 hours after treatment, 1 DAA
# [11] = simulated rainfall 2 hours after treatment, 2 DAA
# [12] = simulated rainfall 2 hours after treatment, 3 DAA
# [13] = simulated rainfall 2 hours after treatment, 7 DAA
# [14] = simulated rainfall 6 hours after treatment, 1 DAA
# [15] = simulated rainfall 6 hours after treatment, 2 DAA
# [16] = simulated rainfall 6 hours after treatment, 3 DAA
# [17] = without simulated rainfall, 1 DAA
# [18] = without simulated rainfall, 2 DAA
# [19] = without simulated rainfall, 3 DAA
# [20] = without simulated rainfall, 7 DAA
smiles,measurement,setting,value
"Cc1nn(-c2cc(CC(Cl)C(=O)O)c(Cl)cc2F)c(=O)n1C(F)F (centres unmarked) [Carfentrazone, carfentrazone]",herbicidal action against BRADE,[1]; [3],4%
same,herbicidal action against BRADE,[1]; [4],10.33%
same,herbicidal action against BRADE,[1]; [5],11.66%
same,herbicidal action against BRADE,[1]; [6],17.33%
same,herbicidal action against BRADE,[1]; [7],10.66%
same,herbicidal action against BRADE,[1]; [8],19.66%
same,herbicidal action against BRADE,[1]; [9],11.66%
same,herbicidal action against BRADE,"[1]; simulated rainfall 30 min after treatment, 7 DAA",18.66%
same,herbicidal action against BRADE,[1]; [10],15%
same,herbicidal action against BRADE,[1]; [11],14.33%
same,herbicidal action against BRADE,[1]; [12],13%
same,herbicidal action against BRADE,[1]; [13],16.66%
same,herbicidal action against BRADE,[1]; [14],25%
same,herbicidal action against BRADE,[1]; [15],29%
same,herbicidal action against BRADE,[1]; [16],27.66%
same,herbicidal action against BRADE,"[1]; simulated rainfall 6 hours after treatment, 7 DAA",26%
same,herbicidal action against BRADE,[1]; [17],3.66%
same,herbicidal action against BRADE,[1]; [18],18.33%
same,herbicidal action against BRADE,[1]; [19],24.33%
same,herbicidal action against BRADE,[1]; [20],40.33%
same,herbicidal action against BIDPI,Bidens pilosa (BIDPI); [3],51%
same,herbicidal action against BIDPI,Bidens pilosa (BIDPI); [4],54.66%
same,herbicidal action against BIDPI,Bidens pilosa (BIDPI); [5],53.33%
same,herbicidal action against BIDPI,Bidens pilosa (BIDPI); [7],68.66%
same,herbicidal action against BIDPI,Bidens pilosa (BIDPI); [8],87.66%
same,herbicidal action against BIDPI,Bidens pilosa (BIDPI); [9],94.66%
same,herbicidal action against BIDPI,Bidens pilosa (BIDPI); [10],69.33%
same,herbicidal action against BIDPI,Bidens pilosa (BIDPI); [11],89%
same,herbicidal action against BIDPI,Bidens pilosa (BIDPI); [12],92.33%
same,herbicidal action against BIDPI,Bidens pilosa (BIDPI); [14],56%
same,herbicidal action against BIDPI,Bidens pilosa (BIDPI); [15],86.66%
same,herbicidal action against BIDPI,Bidens pilosa (BIDPI); [16],92.33%
same,herbicidal action against BIDPI,Bidens pilosa (BIDPI); [17],69.66%
same,herbicidal action against BIDPI,Bidens pilosa (BIDPI); [18],94.33%
same,herbicidal action against BIDPI,Bidens pilosa (BIDPI); [19],99%
same,herbicidal action against ECHCO,[2]; [3],9%
same,herbicidal action against ECHCO,[2]; [4],33.33%
same,herbicidal action against ECHCO,[2]; [5],36%
same,herbicidal action against ECHCO,[2]; [6],56%
same,herbicidal action against ECHCO,[2]; [10],14%
same,herbicidal action against ECHCO,[2]; [11],32.22%
same,herbicidal action against ECHCO,[2]; [12],37.66%
same,herbicidal action against ECHCO,[2]; [13],50.33%
same,herbicidal action against ECHCO,[2]; [17],14.66%
same,herbicidal action against ECHCO,[2]; [18],54.66%
same,herbicidal action against ECHCO,[2]; [19],76.66%
same,herbicidal action against ECHCO,[2]; [20],76%
